Reference: ChEMBL document CHEMBL3885861, “Open TG-GATES”

Species on record: Rattus norvegicus
Test: Open TG-GATES - Regimen: Daily Repeat
Format: toxicity, organism-based, Sprague-Dawley
Parameters: regimen Daily Repeat, gender Male, age 6 weeks
Details: in vivo, po, 10 mg/kg, route gavage, dose level Low; for APTT / Bas / Eos / Fbg / Hb / Ht / Lym / MCH / MCHC / MCV / Mono / Neu / PT / Plat / RBC / Ret / WBC: tissue Blood; for KIDNEY_L / KIDNEY_R / KIDNEY_TOTAL: tissue Kidney; for LIVER: tissue Liver; for A/G / ALP / ALT / AST / BUN / CRE / Ca / Cl / DBIL / GLC / IP / K / LDH / Na / PL / RALB / TBIL / TC / TG / TP / gamma-GTP: tissue Plasma

In the case of O=C1CN(/N=C/c2ccc([N+](=O)[O-])o2)C(=O)N1 [NITROFURANTOIN], the TERMINAL_BW (72 h, time 3 day) is reported as 245.3 g, the APTT (72 h, time 3 day) is reported as 18 s and the Bas (72 h, time 3 day) is reported as 0%. It also gave an Eos (72 h, time 3 day) of 1%, a Fbg (72 h, time 3 day) of 213.8 mg/dL and a Hb (72 h, time 3 day) of 13.2 g/dL. It also gave a Ht (72 h, time 3 day) of 37.5%, a Lym (72 h, time 3 day) of 79.8% and an MCH (72 h, time 3 day) of 22.4 pg. It also gave an MCHC (72 h, time 3 day) of 35.3%, an MCV (72 h, time 3 day) of 63.3 fL and a Mono (72 h, time 3 day) of 2.6%. The Neu (72 h, time 3 day) was 15.2%, the PT (72 h, time 3 day) was 12.5 s and the Plat (72 h, time 3 day) was 122.9 x10_4/uL. For the same molecule, the RBC (72 h, time 3 day) was 592.2 x10_4/ul, the Ret (72 h, time 3 day) was 6.6% and the WBC (72 h, time 3 day) was 108.7 x10_2/uL. For the same molecule, the KIDNEY_L (72 h, time 3 day) was 1.1 g, the KIDNEY_R (72 h, time 3 day) was 1 g and the KIDNEY_TOTAL (72 h, time 3 day) was 2.1 g. It also gave an LIVER (72 h, time 3 day) of 11.5 g, an A/G (72 h, time 3 day) of 1.7 and an ALP (72 h, time 3 day) of 964.4 IU/L. For the same molecule, the ALT (72 h, time 3 day) was 33.2 IU/L, the AST (72 h, time 3 day) was 68 IU/L and the BUN (72 h, time 3 day) was 13.8 mg/dL. For the same molecule, the CRE (72 h, time 3 day) was 0.4 mg/dL, the Ca (72 h, time 3 day) was 10.6 mg/dL and the Cl (72 h, time 3 day) was 102.4 meq/L. The DBIL (72 h, time 3 day) was 0.096 mg/dL, the GLC (72 h, time 3 day) was 212.6 mg/dL and the IP (72 h, time 3 day) was 7.2 mg/dL. The K (72 h, time 3 day) was 3.9 meq/L, the LDH (72 h, time 3 day) was 200.2 IU/L and the Na (72 h, time 3 day) was 140 meq/L. The PL (72 h, time 3 day) was 134.4 mg/dL, the RALB (72 h, time 3 day) was 3.4 g/dL and the TBIL (72 h, time 3 day) was 0.1 mg/dL. The TC (72 h, time 3 day) was 65.6 mg/dL, the TG (72 h, time 3 day) was 99.8 mg/dL and the TP (72 h, time 3 day) was 5.5 g/dL. For the same molecule, the gamma-GTP (72 h, time 3 day) was 1 IU/L, the TERMINAL_BW ([…], time 7 day) was 276.7 g and the TERMINAL_BW ([…], time 14 day) was 338.3 g. It also gave a TERMINAL_BW ([…], time 28 day) of 422 g, an APTT ([…], time 7 day) of 20.1 s and a Bas ([…], time 7 day) of 0%. For the same molecule, the Eos ([…], time 7 day) was 1%, the Fbg ([…], time 7 day) was 228.8 mg/dL and the Hb ([…], time 7 day) was 13.9 g/dL. It also gave a Ht ([…], time 7 day) of 39.5%, a Lym ([…], time 7 day) of 79.2% and an MCH ([…], time 7 day) of 21.7 pg. For the same molecule, the MCHC ([…], time 7 day) was 35.2%, the MCV ([…], time 7 day) was 61.9 fL and the Mono ([…], time 7 day) was 3%. The Neu ([…], time 7 day) was 16.4%, the PT ([…], time 7 day) was 12.6 s and the Plat ([…], time 7 day) was 124.7 x10_4/uL. It also gave an RBC ([…], time 7 day) of 639.4 x10_4/ul, a Ret ([…], time 7 day) of 6% and a WBC ([…], time 7 day) of 123.1 x10_2/uL. It also gave an APTT ([…], time 14 day) of 19.8 s, a Bas ([…], time 14 day) of 0% and an Eos ([…], time 14 day) of 1%. The Fbg ([…], time 14 day) was 223 mg/dL, the Hb ([…], time 14 day) was 14.3 g/dL and the Ht ([…], time 14 day) was 41.2%. It also gave a Lym ([…], time 14 day) of 80.6%, an MCH ([…], time 14 day) of 21 pg and an MCHC ([…], time 14 day) of 34.8%. It also gave an MCV ([…], time 14 day) of 60.3 fL, a Mono ([…], time 14 day) of 2.2% and a Neu ([…], time 14 day) of 15%. The PT ([…], time 14 day) was 12.2 s, the Plat ([…], time 14 day) was 114.6 x10_4/uL and the RBC ([…], time 14 day) was 683 x10_4/ul. The Ret ([…], time 14 day) was 4.3%, the WBC ([…], time 14 day) was 119.2 x10_2/uL and the APTT ([…], time 28 day) was 19.9 s. The Bas ([…], time 28 day) was 0%, the Eos ([…], time 28 day) was 1% and the Fbg ([…], time 28 day) was 220.4 mg/dL. The Hb ([…], time 28 day) was 15 g/dL, the Ht ([…], time 28 day) was 43.1% and the Lym ([…], time 28 day) was 83.8%. The MCH ([…], time 28 day) was 19.8 pg, the MCHC ([…], time 28 day) was 34.8% and the MCV ([…], time 28 day) was 56.8 fL. It also gave a Mono ([…], time 28 day) of 2.2%, a Neu ([…], time 28 day) of 12.2% and a PT ([…], time 28 day) of 12.7 s. It also gave a Plat ([…], time 28 day) of 99.8 x10_4/uL, an RBC ([…], time 28 day) of 759 x10_4/ul and a Ret ([…], time 28 day) of 2.6%. For the same molecule, the WBC ([…], time 28 day) was 140.7 x10_2/uL, the KIDNEY_L ([…], time 7 day) was 1.1 g and the KIDNEY_R ([…], time 7 day) was 1.1 g. It also gave a KIDNEY_TOTAL ([…], time 7 day) of 2.3 g, a KIDNEY_L ([…], time 14 day) of 1.3 g and a KIDNEY_R ([…], time 14 day) of 1.3 g. It also gave a KIDNEY_TOTAL ([…], time 14 day) of 2.5 g, a KIDNEY_L ([…], time 28 day) of 1.5 g and a KIDNEY_R ([…], time 28 day) of 1.5 g. For the same molecule, the KIDNEY_TOTAL ([…], time 28 day) was 2.9 g, the LIVER ([…], time 7 day) was 13.3 g and the LIVER ([…], time 14 day) was 15.1 g. For the same molecule, the LIVER ([…], time 28 day) was 17.2 g, the A/G ([…], time 7 day) was 1.6 and the ALP ([…], time 7 day) was 916.8 IU/L. It also gave an ALT ([…], time 7 day) of 33.4 IU/L, an AST ([…], time 7 day) of 62.4 IU/L and a BUN ([…], time 7 day) of 15.8 mg/dL. For the same molecule, the CRE ([…], time 7 day) was 0.4 mg/dL, the Ca ([…], time 7 day) was 11 mg/dL and the Cl ([…], time 7 day) was 100.6 meq/L. It also gave a DBIL ([…], time 7 day) of 0.1 mg/dL, a GLC ([…], time 7 day) of 205 mg/dL and an IP ([…], time 7 day) of 7.6 mg/dL. The K ([…], time 7 day) was 4.3 meq/L, the LDH ([…], time 7 day) was 201.2 IU/L and the Na ([…], time 7 day) was 140 meq/L. The PL ([…], time 7 day) was 156.8 mg/dL, the RALB ([…], time 7 day) was 3.5 g/dL and the TBIL ([…], time 7 day) was 0.2 mg/dL. It also gave a TC ([…], time 7 day) of 74.4 mg/dL, a TG ([…], time 7 day) of 142.4 mg/dL and a TP ([…], time 7 day) of 5.7 g/dL. It also gave a gamma-GTP ([…], time 7 day) of 1 IU/L, an A/G ([…], time 14 day) of 1.5 and an ALP ([…], time 14 day) of 781 IU/L. For the same molecule, the ALT ([…], time 14 day) was 32.6 IU/L, the AST ([…], time 14 day) was 60.4 IU/L and the BUN ([…], time 14 day) was 17.6 mg/dL. The CRE ([…], time 14 day) was 0.5 mg/dL, the Ca ([…], time 14 day) was 10.7 mg/dL and the Cl ([…], time 14 day) was 102.6 meq/L. It also gave a DBIL ([…], time 14 day) of 0.1 mg/dL, a GLC ([…], time 14 day) of 208 mg/dL and an IP ([…], time 14 day) of 6.5 mg/dL. For the same molecule, the K ([…], time 14 day) was 3.7 meq/L, the LDH ([…], time 14 day) was 209.8 IU/L and the Na ([…], time 14 day) was 140.4 meq/L. The PL ([…], time 14 day) was 160.6 mg/dL, the RALB ([…], time 14 day) was 3.6 g/dL and the TBIL ([…], time 14 day) was 0.2 mg/dL. It also gave a TC ([…], time 14 day) of 75 mg/dL, a TG ([…], time 14 day) of 149.6 mg/dL and a TP ([…], time 14 day) of 6.1 g/dL. It also gave a gamma-GTP ([…], time 14 day) of 1 IU/L, an A/G ([…], time 28 day) of 1.3 and an ALP ([…], time 28 day) of 736.4 IU/L. The ALT ([…], time 28 day) was 32.6 IU/L, the AST ([…], time 28 day) was 59.2 IU/L and the BUN ([…], time 28 day) was 16.6 mg/dL. For the same molecule, the CRE ([…], time 28 day) was 0.5 mg/dL, the Ca ([…], time 28 day) was 10.4 mg/dL and the Cl ([…], time 28 day) was 102.4 meq/L. It also gave a DBIL ([…], time 28 day) of 0.098 mg/dL, a GLC ([…], time 28 day) of 224 mg/dL and an IP ([…], time 28 day) of 6.3 mg/dL. It also gave a K ([…], time 28 day) of 3.5 meq/L, an LDH ([…], time 28 day) of 137 IU/L and a Na ([…], time 28 day) of 139.6 meq/L. It also gave a PL ([…], time 28 day) of 140.8 mg/dL, an RALB ([…], time 28 day) of 3.4 g/dL and a TBIL ([…], time 28 day) of 0.2 mg/dL. For the same molecule, the TC ([…], time 28 day) was 66.2 mg/dL, the TG ([…], time 28 day) was 104.6 mg/dL and the TP ([…], time 28 day) was 5.9 g/dL. For the same molecule, the gamma-GTP ([…], time 28 day) was 1 IU/L.
